Laboratory results taken from PubChem BioAssay AID256 (DTP/NCI, 2004).
Values joined by “and” are separate entries in the source; they are usually repeats but may differ in a detail not shown here. Equal values may be shown once. Inconclusive results and toxic doses are left out.

Test system: CD2F1 mice, L1210 leukemia ip, survival T/C
Test: NCI In Vivo Anticancer Drug Screen. Data for tumor model L1210 Leukemia (intraperitoneal) in CD2F1 (CDF1) mice
Settings: higher = longer survival
Description: The antitumor activity of compounds was measured in mice bearing transplantable tumors. Survival or tumor size were measured and the results are expressed as the measurement made in the treated group (T) divided by the measurement made in the vehicle treated control group (C). The tumor model used in this assay is L1210 Leukemia (intraperitoneal) in CD2F1 (CDF1) mice

[1] = endpoint: mean survival time, dose: 100.0 mg/kg/injection, schedule: Q04DX003 (ip), vehicle: saline with Tween-80
[2] = endpoint: mean survival time, dose: 200.0 mg/kg/injection, schedule: Q04DX003 (ip), vehicle: saline with Tween-80
[3] = endpoint: mean survival time, dose: 400.0 mg/kg/injection, schedule: Q04DX003 (ip), vehicle: saline with Tween-80
[4] = endpoint: mean survival time, dose: 50.0 mg/kg/injection, schedule: Q01DX009 (ip), vehicle: saline with Tween-80
[5] = endpoint: mean survival time, dose: 100.0 mg/kg/injection, schedule: Q01DX009 (ip), vehicle: saline with Tween-80
[6] = endpoint: mean survival time, dose: 200.0 mg/kg/injection, schedule: Q01DX009 (ip), vehicle: saline with Tween-80

C/C=N\N=C(N)N
T/C (endpoint: mean survival time, dose: 30.0 mg/kg/injection, schedule: Q01DX010 (ip), vehicle: saline): 96 % of control | T/C (endpoint: mean survival time, dose: 60.0 mg/kg/injection, schedule: Q01DX009 (ip), vehicle: saline): 96 % of control | T/C (endpoint: mean survival time, dose: 120.0 mg/kg/injection, schedule: Q01DX010 (ip), vehicle: saline): 91 % of control | T/C (endpoint: mean survival time, dose: 240.0 mg/kg/injection, schedule: Q01DX009 (ip), vehicle: saline): 93 % of control | T/C (endpoint: mean survival time, dose: 480.0 mg/kg/injection, schedule: Q01DX009 (ip), vehicle: saline): 93 % of control

CCO
T/C (endpoint: mean survival time, dose: 50.0 mg/kg/injection, schedule: Q03HX024 (ip), vehicle: saline): 100 % of control | T/C (endpoint: mean survival time, dose: 100.0 mg/kg/injection, schedule: Q03HX024 (ip), vehicle: saline): 102 % of control | T/C (endpoint: mean survival time, dose: 125.0 mg/kg/injection, schedule: Q01DX009 (ip), vehicle: saline): 103 % of control | T/C (endpoint: mean survival time, dose: 200.0 mg/kg/injection, schedule: Q03HX024 (ip), vehicle: saline): 97 % of control | T/C (endpoint: mean survival time, dose: 250.0 mg/kg/injection, schedule: Q01DX009 (ip), vehicle: saline): 100 % of control | T/C (endpoint: mean survival time, dose: 400.0 mg/kg/injection, schedule: Q03HX024 (ip), vehicle: saline): 102 % of control | T/C (endpoint: mean survival time, dose: 500.0 mg/kg/injection, schedule: Q01DX001 (ip), vehicle: saline): 109 % of control | T/C (endpoint: mean survival time, dose: 500.0 mg/kg/injection, schedule: Q01DX009 (ip), vehicle: saline): 105 % of control | T/C (endpoint: mean survival time, dose: 1000.0 mg/kg/injection, schedule: Q01DX001 (ip), vehicle: saline): 108 % of control | T/C (endpoint: mean survival time, dose: 1000.0 mg/kg/injection, schedule: Q01DX009 (ip), vehicle: saline): 103 % of control | T/C (endpoint: mean survival time, dose: 2000.0 mg/kg/injection, schedule: Q01DX001 (ip), vehicle: saline): 103 % of control | T/C (endpoint: mean survival time, dose: 4000.0 mg/kg/injection, schedule: Q01DX001 (ip), vehicle: saline): 111 % of control

O=NNc1cccc(NN=O)n1
T/C (endpoint: median survival time, dose: 6.25 mg/kg/injection, schedule: Q01DX005 (ip), vehicle: saline): 115 % of control and 108 % of control | T/C (endpoint: median survival time, dose: 12.5 mg/kg/injection, schedule: Q01DX005 (ip), vehicle: saline): 121 % of control | T/C (endpoint: median survival time, dose: 29.0 mg/kg/injection, schedule: Q01DX005 (ip), vehicle: saline): 153 % of control | T/C (endpoint: median survival time, dose: 44.0 mg/kg/injection, schedule: Q01DX005 (ip), vehicle: saline): 166 % of control | T/C (endpoint: median survival time, dose: 100.0 mg/kg/injection, schedule: Q01DX005 (ip), vehicle: saline): 122 % of control and 91 % of control and 98 % of control

CS(=O)(=O)c1nccc2ccccc12
T/C (endpoint: mean survival time, dose: 100.0 mg/kg/injection, schedule: Q04DX003 (ip), vehicle: saline): 90 % of control | T/C (endpoint: mean survival time, dose: 200.0 mg/kg/injection, schedule: Q04DX003 (ip), vehicle: saline): 88 % of control | T/C (endpoint: mean survival time, dose: 400.0 mg/kg/injection, schedule: Q04DX003 (ip), vehicle: saline): 95 % of control

CC1C2C=CC1C(c1c3ccc(=O)cc-3oc3cc(O)ccc13)C2C(=O)O (configuration not stated)
T/C [1]: 103 % of control | T/C [2]: 97 % of control | T/C [3]: 111 % of control

NCC(=O)NCC(=O)OCCO
T/C (endpoint: mean survival time, dose: 50.0 mg/kg/injection, schedule: Q01DX009 (ip), vehicle: water): 97 % of control | T/C (endpoint: mean survival time, dose: 100.0 mg/kg/injection, schedule: Q01DX009 (ip), vehicle: water): 93 % of control | T/C (endpoint: mean survival time, dose: 200.0 mg/kg/injection, schedule: Q01DX009 (ip), vehicle: water): 91 % of control | T/C (endpoint: mean survival time, dose: 400.0 mg/kg/injection, schedule: Q01DX009 (ip), vehicle: water): 90 % of control

Cc1ccc(S(=O)(=O)NC(=S)S)cc1
T/C (endpoint: mean survival time, dose: 12.5 mg/kg/injection, schedule: Q01DX009 (ip), vehicle: saline with Tween-80): 102 % of control and 110 % of control | T/C (endpoint: mean survival time, dose: 25.0 mg/kg/injection, schedule: Q01DX009 (ip), vehicle: saline with Tween-80): 115 % of control and 103 % of control | T/C [4]: 110 % of control and 112 % of control | T/C [5]: 113 % of control and 103 % of control | T/C [6]: 105 % of control and 111 % of control | T/C (endpoint: mean survival time, dose: 400.0 mg/kg/injection, schedule: Q01DX009 (ip), vehicle: saline with Tween-80): 105 % of control and 109 % of control

S
T/C (endpoint: mean survival time, dose: 100.0 mg/kg/injection, schedule: Q04DX003 (ip), vehicle: Klucel (hydroxypropylcellulose) (HPC)): 95 % of control | T/C (endpoint: mean survival time, dose: 200.0 mg/kg/injection, schedule: Q04DX003 (ip), vehicle: Klucel (hydroxypropylcellulose) (HPC)): 101 % of control | T/C (endpoint: mean survival time, dose: 400.0 mg/kg/injection, schedule: Q04DX003 (ip), vehicle: Klucel (hydroxypropylcellulose) (HPC)): 93 % of control

Cc1ncc2c(n1)NC(c1ccc(Cl)cc1Cl)NC2 (configuration not stated)
T/C (endpoint: mean survival time, dose: 75.0 mg/kg/injection, schedule: Q01DX001 (ip), vehicle: saline): 101 % of control | T/C (endpoint: mean survival time, dose: 150.0 mg/kg/injection, schedule: Q01DX001 (ip), vehicle: saline): 105 % of control | T/C (endpoint: mean survival time, dose: 300.0 mg/kg/injection, schedule: Q01DX001 (ip), vehicle: saline): 101 % of control

O=C(Oc1ccccc1/C=C/[n+]1ccccc1)c1ccccc1
T/C [4]: 92 % of control | T/C [5]: 100 % of control | T/C [6]: 96 % of control

BrC1(Br)C2CCCCCCC21 (configuration not stated)
T/C [5]: 91 % of control | T/C [1]: 87 % of control | T/C [6]: 87 % of control | T/C [2]: 98 % of control | T/C [3]: 96 % of control
